Drawing on patent publication US4725583A, “Functionalized peptidylaminoalcohols” (Abbott Laboratories, priority 1986, dated 1988), this text covers IC50 for four compounds.

The assay deals with T1, human renal renin (Homo sapiens, UniProt P00797).
T1 construct: human renal renin, free from acid proteolytic activity; from tissue
T1 sequence (P00797 67-406): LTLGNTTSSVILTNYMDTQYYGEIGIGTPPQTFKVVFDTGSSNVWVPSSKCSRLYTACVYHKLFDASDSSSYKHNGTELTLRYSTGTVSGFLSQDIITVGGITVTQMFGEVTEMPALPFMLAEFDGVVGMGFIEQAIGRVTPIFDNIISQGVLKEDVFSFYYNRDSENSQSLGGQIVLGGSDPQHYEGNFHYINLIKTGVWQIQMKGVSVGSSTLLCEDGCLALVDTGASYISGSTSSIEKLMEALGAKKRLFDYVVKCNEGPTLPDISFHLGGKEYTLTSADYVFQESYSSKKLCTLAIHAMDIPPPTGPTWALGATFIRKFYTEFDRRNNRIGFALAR
Put plainly: In vitro inhibition of human renal renin (angiotensin I formation measured by radioimmunoassay). It counts as biochemical. The settings on record: human renal renin with human renin substrate (angiotensinogen), 37° C., pH 6.0.
In turn, `CC(C)C[C@H](NC(=O)[C@H](C)NC(=O)[C@H](Cc1ccccc1)NC(=O)OC(C)(C)C)C(O)C=O` (stereo partly drawn) [Example 3, Boc-Phe-Ala Amide of (3S)-Amino-2-hydroxy-5-methylhexanal] showed a half-maximal inhibitory concentration (IC50) of 0.01 µM.

With `C[C@H](NC(=O)[C@H](Cc1ccccc1)NC(=O)OC(C)(C)C)C(=O)N[C@@H](CC1CCCCC1)[C@@H](O)CCl` [Example 14, Boc-Phe-Ala Amide of (2R,3S)-3-Amino-1-chloro-4-cyclohexyl-2-hydroxybutane], the IC50 was 0.4 µM. This IC50 lies about 40-fold higher than the previous one.

Compound `C[C@H](NC(=O)[C@H](Cc1ccccc1)NC(=O)OC(C)(C)C)C(=O)N[C@@H](CC1CCCCC1)[C@@H](O)CBr` [Example 16, Boc-Phe-Ala Amide of (2R,3S)-3-Amino-1-bromo-4-cyclohexyl-2-hydroxybutane] came in with an IC50 of 0.7 µM. This IC50 lies about 1.7-fold higher than the previous one.

Compound `CC(C)CC(=O)C(O)[C@H](CC1CCCCC1)NC(=O)[C@H](Cc1cnc[nH]1)NC(=O)[C@H](Cc1ccccc1)NC(=O)OC(C)(C)C` (stereo partly drawn) [Example 19, Boc-Phe-His Amide of (2S)-Amino-1-cyclohexyl-3-hydroxy-6-methylheptan-4-one] came in with a 50% inhibitory concentration (IC50) of 0.01 µM.

For orientation: IC50 means the concentration needed to halve the response being measured. A high value points to weaker potency in that assay.
